The values that follow come from patent US20090069302A1 (SMITHKLINE BEECHAM CORPORATION, priority 2006, published 2009).

The assay addresses T1, AXOR109 (Homo sapiens, UniProt Q8TDU6).
T1 construct: expressed in transfected cells; host or cells: melanophore cells, transfected by electroporation
T1 sequence (Q8TDU6 1-330): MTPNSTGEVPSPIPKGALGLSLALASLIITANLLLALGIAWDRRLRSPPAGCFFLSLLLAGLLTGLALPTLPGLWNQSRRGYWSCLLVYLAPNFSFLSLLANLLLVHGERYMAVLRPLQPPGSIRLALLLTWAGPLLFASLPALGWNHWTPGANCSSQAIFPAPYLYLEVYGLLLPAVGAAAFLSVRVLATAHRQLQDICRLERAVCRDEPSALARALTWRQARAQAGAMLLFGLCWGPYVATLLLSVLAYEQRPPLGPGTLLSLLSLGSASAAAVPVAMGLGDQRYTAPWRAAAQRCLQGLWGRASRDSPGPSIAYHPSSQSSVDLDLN
The assay is described as follows: Human AXOR109/Melanophore Assay. The assay is classed as cell-based. The conditions noted are these: melanophore assay; for Emax: 1 h; for EC50: AXOR109 transfected melanophores. On the procedure:
AXOR109 is a Gs-coupled receptor and therefore increases intracellular cAMP leading to melanosome dispersion. Compounds of the present invention were characterized in a melanophore assay as described in Jayawickreme C K, et al., Current Protocols in Pharmacology (2005) 12.9.1-12.9.16. Briefly, melanophore cells are transfected by electroporation with AXOR109 expressing cDNA. Cells are then plated in 384 well clear bottom plates at 8E3 cells per well in 50 μl of conditioned fibroblast media (CFM). Compounds to be tested are serially diluted 3-fold in DMSO and further diluted 1:100 with melanophore assay buffer (MAB)+10 nM Melatonin to yield 11 point concentration response curves. Following 2 hour incubation with MAB+1% DMSO+10 nM Melatonin, initial transmittance is read on a TwisterII/Spectramax plate reader. Compounds are then added to the cells and incubated for 1 hour, and final transmittance is read as before. Results are compared to vehicle (MAB+1% DMSO+10 nM Melatonin) and to a positive control (MAB+1% DMSO+10 nM Melatonin+200 nM alpha-MSH). Data are calculated for each well as follows: 1-(Transmitance-final/Transmitance-initial). Each well result is then normalized to alpha-MSH, the system max control for Gs/Gq coupled receptors using the following equation: (ObjX−Control1)/(Control2−Control1)*100. The percent system max is used to generate the pEC50 using the equation: y=((Vmax*x̂n)/(K̂n+x̂n))+Y2. Acceptable Z-prime values should be >0.4. Compounds of the present invention have a pEC50≧5.0 in the above described assay.

The mark [1] stands for this setting: normalized to alpha-MSH system max.

In the case of `COc1ccc(S(=O)(=O)N2CCN(S(=O)(=O)c3ccc(OC)c(OC)c3)CC2)cc1OC` [Example 4, 1,4-bis{[3,4-bis(methyloxy)phenyl]sulfonyl}piperazine], the EC50 was 1260 to 10000 nM. Besides, the maximal response (Emax) under setting [1] is 51 to 75%.
As for `CC=CCN(CCN(C)S(=O)(=O)c1ccc(OC)c(OC)c1)S(=O)(=O)c1ccc(OC)c(OC)c1` [Example 75, N-{2-[{[3,4-bis(methyloxy)phenyl]sulfonyl}(2-buten-1-yl)amino]ethyl}-N-methyl-3,4-bis(methyloxy)benzenesulfonamide], the concentration giving a half-maximal response (EC50) is 126 to 1000 nM. In addition, the Emax under setting [1] was in the range of 76 to 100%.
For the molecule `COc1ccc(S(=O)(=O)N2CCCN(S(=O)(=O)c3ccc4c(c3)OCCO4)CC2)cc1OC` [Example 8, 1-{[3,4-bis(methyloxy)phenyl]sulfonyl}-4-(2,3-dihydro-1,4-benzodioxin-6-ylsulfonyl)hexahydro-1H-1,4-diazepine], the 50% effective concentration (EC50) was 1260 to 10000 nM. Besides, under setting [1], the Emax is 51 to 75%.
On to `COc1ccc(S(=O)(=O)NCCNS(=O)(=O)c2ccc(OC)c(OC)c2)cc1OC` [Example 26, N,N′-1,2-ethanediylbis[3,4-bis(methyloxy)benzenesulfonamide]], for which the EC50 was 1260 to 10000 nM. The molecule also returned an Emax under setting [1] of 76 to 100%.
Taken in the same sequence, the figures for `CCCN(C[C@@H]1CCCN1S(=O)(=O)c1ccc(OC)c(OC)c1)S(=O)(=O)c1ccc(OC)c(OC)c1` [Example 96, N-[((2S)-1-{[3,4-bis(methyloxy)phenyl]sulfonyl}-2-pyrrolidinyl)methyl]-3,4-bis(methyloxy)-N-propylbenzenesulfonamide] were 126 to 1000 nM and 76 to 100%.
Taken in the same sequence, the figures for `COc1ccc(S(=O)(=O)N(C)CC(C)N(C)S(=O)(=O)c2ccc(OC)c(OC)c2)cc1OC` (stereo not drawn) [Example 44, N,N′-1,2-propanediylbis[N-methyl-3,4-bis(methyloxy)benzenesulfonamide]] were 126 to 1000 nM and 51 to 75%.
The molecule `COc1ccc(S(=O)(=O)N[C@@H]2CCN(S(=O)(=O)c3ccc(OC)c(OC)c3)C2)cc1OC` [Example 77, N-((3R)-1-{[3,4-bis(methyloxy)phenyl]sulfonyl}-3-pyrrolidinyl)-3,4-bis(methyloxy)benzenesulfonamide] showed an EC50 of 1260 to 10000 nM. The Emax under setting [1] lay within 76 to 100%.
Taken in the same sequence, the figures for `CCN([C@@H]1CCN(S(=O)(=O)c2ccc(OC)c(OC)c2)C1)S(=O)(=O)c1ccc(OC)c(OC)c1` [Example 60, N-((3R)-1-{[3,4-bis(methyloxy)phenyl]sulfonyl}-3-pyrrolidinyl)-N-ethyl-3,4-bis(methyloxy)benzenesulfonamide] were less than 126 nM and 76 to 100%.
For `COc1ccc(S(=O)(=O)N(C)CCN(C)S(=O)(=O)c2ccc3c(c2)n(C)c(=O)n3C)cc1OC` [Example 65, N-methyl-N-{2-[{[3,4-bis(methyloxy)phenyl]sulfonyl}(methyl)amino]ethyl}-1,3-dimethyl-2-oxo-2,3-dihydro-1H-benzimidazole-5-sulfonamide], the EC50 is 1260 to 10000 nM. Under setting [1], this molecule yielded a maximum response (Emax) of 51 to 75%.
The molecule `COc1ccc(S(=O)(=O)N2CCN(S(=O)(=O)c3c(C)cccc3Cl)CC2)cc1OC` [Example 5, 1-{[3,4-bis(methyloxy)phenyl]sulfonyl}-4-[(2-chloro-6-methylphenyl)sulfonyl]piperazine] gave an EC50 of 1260 to 10000 nM. This molecule also yielded an Emax under setting [1] of 76 to 100%.
`CCN([C@H]1CCN(S(=O)(=O)c2ccc(OC)c(OC)c2)C1)S(=O)(=O)c1ccc(OC)c(OC)c1` [Example 62, N-((3S)-1-{[3,4-bis(methyloxy)phenyl]sulfonyl}-3-pyrrolidinyl)-N-ethyl-3,4-bis(methyloxy)benzenesulfonamide] showed an EC50 of 1260 to 10000 nM. The same molecule returned a maximal response (Emax) under setting [1] of 76 to 100%.
For `COc1ccc(S(=O)(=O)N2C[C@H](C)N(S(=O)(=O)c3cccc4cccnc34)C[C@@H]2C)cc1OC` [Example 69, 8-[((2S,5S)-4-{[3,4-bis(methyloxy)phenyl]sulfonyl}-2,5-dimethyl-1-piperazinyl)sulfonyl]quinoline], the EC50 was 1260 to 10000 nM. In addition, the Emax under setting [1] lay in the range of 76 to 100%.
Molecule `COc1ccc(S(=O)(=O)N2C[C@@H](C)N(S(=O)(=O)c3ccc(OC)c(OC)c3)[C@@H](C)C2)cc1OC` [Example 79, cis-1,4-bis{[3,4-bis(methyloxy)phenyl]sulfonyl}-2,6-dimethylpiperazine] showed a concentration for a half-maximal effect (EC50) of less than 126 nM. Moreover, under setting [1], the Emax is more than 100%.
Molecule `CCN(C1CCCN(S(=O)(=O)c2ccc(OC)c(OC)c2)C1)S(=O)(=O)c1ccc(OC)c(OC)c1` (stereo not drawn) [Example 93, N-(1-{[3,4-bis(methyloxy)phenyl]sulfonyl}-3-piperidinyl)-N-ethyl-3,4-bis(methyloxy)benzenesulfonamide] showed a 50% effective concentration (EC50) of 1260 to 10000 nM. This molecule registered a maximal effect (Emax) under setting [1] of 51 to 75%.
In turn, `COc1ccc(S(=O)(=O)N2CCN(S(=O)(=O)c3ccc(OC)c(OC)c3)CC(=O)C2)cc1OC` [Example 51, 1,4-bis{[3,4-bis(methyloxy)phenyl]sulfonyl}hexahydro-6H-1,4-diazepin-6-one] gave an EC50 of 1260 to 10000 nM. Under setting [1], this molecule returned a maximum response (Emax) of 76 to 100%.
Taken in the same sequence, the figures for `COc1ccc(S(=O)(=O)N2CC(C)N(S(=O)(=O)c3ccc(OC)c(OC)c3)CC2C)cc1OC` (stereo not drawn) [Example 18, 1,4-bis{[3,4-bis(methyloxy)phenyl]sulfonyl}-2,5-dimethylpiperazine] were less than 126 nM and 51 to 75%.
With `COc1ccc(S(=O)(=O)N2CC[C@@H](N(C)S(=O)(=O)c3ccc(OC)c(OC)c3)C2)cc1OC` [Example 85], the EC50 is 126 to 1000 nM. The molecule also returned an Emax under setting [1] of 51 to 75%.
As for `COc1ccc(S(=O)(=O)N(C)C(C)C(C)N(C)S(=O)(=O)c2ccc(OC)c(OC)c2)cc1OC` (stereo not drawn) [Example 55, N,N′-2,3-butanediylbis[N-methyl-3,4-bis(methyloxy)benzenesulfonamide]], the EC50 is 126 to 1000 nM. Besides, the maximal response (Emax) under setting [1] lay in the range of 51 to 75%.
In turn, `COc1ccc(S(=O)(=O)N2[C@H](C)CN(S(=O)(=O)c3ccc(OC)c(OC)c3)C[C@@H]2C)cc1O` [Example 38, 5-[(4-{[3,4-bis(methyloxy)phenyl]sulfonyl}-2,6-cis-dimethyl-1-piperazinyl)sulfonyl]-2-(methyloxy)phenol] gave an EC50 of 1260 to 10000 nM. Besides, the Emax under setting [1] was in the range of 51 to 75%.
Taken in the same sequence, the figures for `COc1ccc(S(=O)(=O)N2C[C@H](C)N(S(=O)(=O)c3ccc(OC)c(OC)c3)[C@@H](C)C2)cc1OC` [Example 21, (2S,6S)-1,4-bis{[3,4-bis(methyloxy)phenyl]sulfonyl}-2,6-dimethylpiperazine] were 126 to 1000 nM and 51 to 75%.
`CCC1CN(S(=O)(=O)c2ccc(OC)c(OC)c2)C(C)CN1S(=O)(=O)c1ccc(OC)c(OC)c1` (stereo not drawn) [Example 46, 1,4-bis{[3,4-bis(methyloxy)phenyl]sulfonyl}-2-ethyl-5-methylpiperazine] showed a concentration giving a half-maximal response (EC50) of 1260 to 10000 nM. In addition, the Emax under setting [1] fell in the range of 51 to 75%.
For the molecule `COc1ccc(S(=O)(=O)N2C[C@@H](C)N(S(=O)(=O)c3ccc(OC)c(OC)c3)[C@@H](C)C2)cc1OC` [Example 54, (2R,6S)-1,4-bis{[3,4-bis(methyloxy)phenyl]sulfonyl}-2,6-dimethylpiperazine], the EC50 was 126 to 1000 nM. In addition, the “% Max” value under setting [1] is “* (“*” = 0% to 50%)”.
For `CCCN([C@@H]1CCN(S(=O)(=O)c2ccc(OC)c(OC)c2)C1)S(=O)(=O)c1ccc(OC)c(OC)c1` [Example 59, N-((3R)-1-{[3,4-bis(methyloxy)phenyl]sulfonyl}-3-pyrrolidinyl)-3,4-bis(methyloxy)-N-propylbenzenesulfonamide], the concentration for a half-maximal effect (EC50) was 126 to 1000 nM. For the same molecule, the Emax under setting [1] was 76 to 100%.
Taken in the same sequence, the figures for `CCN(C[C@H]1CCCN1S(=O)(=O)c1ccc(OC)c(OC)c1)S(=O)(=O)c1ccc(OC)c(OC)c1` [Example 98, N-[((2R)-1-{[3,4-bis(methyloxy)phenyl]sulfonyl}-2-pyrrolidinyl)methyl]-N-ethyl-3,4-bis(methyloxy)benzenesulfonamide] were less than 126 nM and 76 to 100%.
Consider `COc1ccc(S(=O)(=O)N2C[C@H](C)N(S(=O)(=O)c3ccc(OS(C)(=O)=O)c(OC)c3)C[C@@H]2C)cc1OC` [Example 63, 4-[((2S,5S)-4-{[3,4-bis(methyloxy)phenyl]sulfonyl}-2,5-dimethyl-1-piperazinyl)sulfonyl]-2-(methyloxy)phenyl methanesulfonate], for which the EC50 is 1260 to 10000 nM.
`COc1ccc(S(=O)(=O)N(C)CCN(C)S(=O)(=O)c2ccc(OC)c(OC)c2)cc1` [Example 15, N-methyl-N-[2-(methyl{[4-(methyloxy)phenyl]sulfonyl}amino)ethyl]-3,4-bis(methyloxy)benzenesulfonamide] showed an EC50 of 126 to 1000 nM. Also, under setting [1], the maximal response (Emax) lay within 76 to 100%.

The Emax is the size of the effect at its maximum, as opposed to the concentration needed. The term EC50 denotes the concentration giving half of the maximal effect. A high value points to lower potency in that assay.
